Reference: patent publication US20130071439A1, “METHODS AND COMPOSITIONS FOR TREATING BIOFILMS” (PRESIDENT AND FELLOWS OF HARVARD COLLEGE, priority 2010, published 2013)

Experiments:
[1] = tested on: B. subtilis strain NCIB3610; test: Pellicle (biofilm) formation in liquid biofilm-inducing medium; type: cell-based, Bacillus subtilis; conditions: for effect on biofilm formation / effect on pellicle formation: 3 days; for biofilm-inhibition assay for B. subtilis: concentration not given
Protocol: (§1) For colony formation on solid medium, cells were first grown to exponential growth phase in LB broth and 3 μl of culture were spotted onto solid MSgg medium containing 1.5% Bacto agar. The plates were incubated at 23° C. For pellicle formation in liquid medium, cells were grown to exponential phase and 6 μl of culture were mixed with 6 ml of medium in a 12-well plate (VWR). Plates were incubated at 23° C. Images of colonies and pellicles were taken using a SPOT camera (Diagnostic Instruments, USA).
To investigate whether mature biofilms produce a factor that triggers biofilm disassembly, the effect of concentrated and partially purified extracts of conditioned medium on pellicle formation when added to fresh medium was assayed. To this end, conditioned medium from an eight-day-old culture was applied to a C18 Sep Pak column. Concentrated eluate from the column was then added to a freshly inoculated culture. […] Further purification of the factor was achieved by eluting the cartridge in step-wise fashion with increasing concentrations of methanol.
D-tyrosine, D-leucine, D-tryptophan, and D-methionine were screened for inhibiting biofilm formation by B. subtilis both in liquid and on solid medium (FIG. 2A, 5, 6).
Next, the minimum concentration (MIC for Minimal Inhibitory Concentration) needed to prevent biofilm formation was determined.

[2] = tested on: P.a. Harvard PA14; test: Biofilm (colony architecture) formation on M63 defined solid medium; type: cell-based, Pseudomonas aeruginosa; conditions: 500 μM (L-tryptophan: concentration not given)
From the text: Similarly to Bacillus subtilis, Pseudomonas aeruginosa forms a complex architecture on defined medium. These complex structures require the proper formation and assembly of the extra-cellular matrix. […] For these experiments, the organism/strain was P.a. Harvard PA14, the culture medium was M63 and the cell inoculation was at 1.5×10^9 cfu.

[3] = tested on: Pseudomonas aeruginosa PA14; test: Biofilm formation on polystyrene, crystal violet staining; type: cell-based
Protocol: (§2) Crystal violet staining was done as described previously (O'Toole et al., Mol. Microbiol. 30:295 (1998)) except that the cells were grown in […]. Wells were stained with 500 μl of 1.0% Crystal-violet dye, rinsed twice with 2 ml double-distilled water and thoroughly dried.
P. aeruginosa strain […] was grown in 12-well polystyrene plates for 48 hours at 30° C. in M63 medium containing glycerol (0.2%) and Casamino acids ([…]). Additionally added to the wells were no amino acids (untreated), D-tyrosine or the D-amino acid equimolar mixture. Cells bound to the polystyrene were visualized by washing away unbound cells and then staining with crystal violet. Wells were stained with […] of 1.0% Crystal-violet dye, rinsed twice with 2 ml double-distilled water and thoroughly dried.
(§3) For experiments reported in Table 1, the organism/strain was S.a. Harvard SCO1, the culture medium was TSB and the cell inoculation was at 2×10^9 cfu. For experiments reported in Table 2, the organism/strain was […], the culture medium was M63 and the cell inoculation was at 1.5×10^9 cfu. Biofilm was visualized using the crystal violet method.

[4] = tested on: eps operon (strain FC5); test: Expression of PepsA-lacZ (β-galactosidase activity); type: cell-based, Bacillus subtilis
Protocol: (§4) Assays of β-galactosidase activity. Cells were cultured in MSgg medium at 37° C. in a water bath with shaking 1 ml of culture was collected at each time point. β-galactosidase activity was determined as described previously (Chai et al., Mol. Microbiol. 67:254 (2008)).

[5] = tested on: cell wall; test: Incorporation of radioactive amino acids into the cell wall; type: cell-based, Bacillus subtilis; conditions: 14C-labelled, 10 μCi/ml, 2 h at 37° C.
Protocol: Incorporation of amino acids into the cell wall. Cells in 50 ml of culture at the mid exponential phase of growth were harvested by centrifugation and washed with 0.05 M of phosphate buffer (pH 7) and re-suspended in 5 ml of the same buffer. […] The radioactivity of whole cells and cell wall fraction was monitored, and, at intervals samples were removed. For measurement of incorporation into whole cells, 0.1 ml samples were collected. For measurements of incorporation into cell wall, 0.5 ml samples were collected. The cells were harvested by centrifugation and re-suspended in SM buffer [0.5 M sucrose, 20 mM MgCl2, and 10 mM potassium phosphate at pH (6.8)] containing 0.1 mg/ml lysozyme. The cells were then incubated at 37° C. for 10 min. Next, the resulting protoplasts were removed by centrifugation at 5000 rpm for 10 min, leaving the cell wall material in the supernatant fluid. […] Finally, 10 ml of 5% trichloroacetic acid was added to the whole cell samples and the cell wall material and maintained on ice for at least 30 min. The TCA-insoluble material was collected on Millipore filters (0.22 μm pore size, Millipore) and washed with 5% TCA. The filters were air-dried and placed in scintillation vials and the TCA-insoluble counts per minute were determined using a scintillation counter.

[6] = tested on: TasA fibers; test: Cell association of TasA fibers by electron microscopy (immunogold); type: cell-based, Bacillus subtilis; conditions: 0.1 mM, 12 hours, Δeps cells
Protocol: Transmission electron microscopy and immunolabeling. Samples were diluted with distilled water and adsorbed onto a carbon or formvar/carbon coated grid. The grid surface was made hydrophilic prior to use with glow discharge in a vacuum evaporator. Once the specimen was adsorbed onto the film surface, the excess sample was blotted off on a filter paper (Whatman #1) and the grid was floated on 5 μl of stain solution (1-2% aqueous uranyl acetate) for a few minutes and then blotted off. The samples were dried and examined in a Tecnai™ G^2 Spirit BioTWIN microscope at an accelerating voltage of 80 KV. Images were taken with an AMT 2k CCD camera. […]
The cells were grown to stationary phase with shaking in biofilm-inducing medium in the presence or absence of D-tyrosine (6 μM). […] When the cells were washed by centrifugation, resuspended and then examined by fluorescence microscopy, untreated cells (which were often in clumps) were seen to be intensely decorated with TasA-mCherry. […] The localization of unmodified TasA protein was also analyzed by transmission electron microscopy using gold-labeled anti-TasA antibodies. […]

[7] = tested on: TasA-mCherry; type: cell-based, Bacillus subtilis; conditions: 6 μM
Protocol: For fluorescence microscopy analysis, 1 ml of culture was harvested. The cells were washed with PBS buffer and suspended in 50 μl of PBS buffer. Cover slides were pretreated with poly L-lysine (Sigma). Samples were examined using an Olympus workstation BX61 microscope. Images were taken using the automated software program SimplePCI and analyzed with program MetaMorph (Universal Imaging Corporation).
The cells were grown to stationary phase with shaking in biofilm-inducing medium in the presence or absence of D-tyrosine (6 μM). […] When the cells were washed by centrifugation, resuspended and then examined by fluorescence microscopy, untreated cells (which were often in clumps) were seen to be intensely decorated with TasA-mCherry. […] The localization of unmodified TasA protein was also analyzed by transmission electron microscopy using gold-labeled anti-TasA antibodies. […] 24-hour-old cultures were incubated without (images 1 and 2) or with (images 3-6) D-tyrosine (0.1 mM) for an additional 12 hours. TasA fibers were stained by immunogold labeling using anti-TasA antibodies, and visualized by transmission electron microscopy as described in the Examples. […] Filled arrows indicate fiber bundles; open arrows indicate individual fibers. The scale bar is 500 nm. The scale bar in the enlargements of images 2, 4 and 6 is 100 nm. […]

[8] = tested on: B. subtilis strain NCIB3610; test: Colony biofilm formation on solid MSgg medium; type: cell-based, Bacillus subtilis; conditions: 4 days
Protocol: as §1

[9] = tested on: B. subtilis; test: Disruption of existing biofilms (3 day-old pellicles); type: cell-based, Bacillus subtilis; conditions: 3 μM added to 3 day-old culture, 8 hours
[10] = tested on: S. aureus (strain SCO1); test: Biofilm formation on polystyrene, crystal violet staining; type: cell-based, Staphylococcus aureus; conditions: 50 μM, 24 hours at 37° C., TSB
Protocol: as §2
The effect of D-amino acids on biofilm formation by other bacteria was examined. The pathogenic bacterium Staphylococcus aureus forms biofilms on plastic surfaces (Otto, Curr. Top. Microbiol. Immunol. 322:207 (2008)), which can be detected by washing away unbound cells and staining the bound cells with crystal violet. […] Additionally added to the wells were no amino acids (untreated), D-tyrosine (50 μM) or the D-amino acid mixture ([…] each). Cells bound to the polystyrene were visualized by washing away unbound cells and then staining with crystal violet.
as §3, with “method. The data is shown below in Tables 1 and 2:” for “method.”
For experiments reported in Tables 3 and 4, the organism/strain was S.a. Harvard SCO1, the culture medium was TSB and the cell inoculation was at 2×10^9 cfu. […]

[11] = tested on: B. subtilis; test: Effect on cell growth in MSgg medium with shaking; type: cell-based, Bacillus subtilis
[12] = tested on: yqxM operon (strain FC122); test: Expression of PyqxM-lacZ (β-galactosidase activity); type: cell-based, Bacillus subtilis
Protocol: as §4

[13] = tested on: Pseudomonas aeruginosa; test: Attached single cells in 6 well plate, Syto-9/SYTOX staining; type: cell-based
Protocol: An alternative method to observe biofilm formation on a 6 well plate with or without D-amino acids and using Syto-9 staining was as follows: Pseudomonas aeruginosa biofilms were washed twice with PBS and then fixed for at least an hour in 5% Glutaraldehyde in PBS. The fixed biofilms were then rinsed once again with PBS and soaked in 0.1% v/v Triton X-100 in PBS (PBST) for 15 minutes. The solution was exchanged with 0.1 nM SYTOX green (Invitrogen) in cold PBST and gently rocked in the dark for at least 15 minutes. Fluorescence images of the biofilms were captured with a Leica DMRX compound microscope using a Xe lamp and a K3 Leica filtercube. […] The amount of attached single cells was quantified using image J. The decrease in the amount of cells attached to the epoxy surfaces soaked with D-aa compared with the L-aa control was substantially more.

[14] = complete inhibition of pellicle formation

Structure (SMILES): N[C@@H](Cc1c[nH]c2ccccc12)C(=O)O [L-tryptophan, reference compound]
- effect on biofilm formation ([1]; 5 mM in MSgg medium): Only the D-amino acids were active
- effect on biofilm formation on defined medium [2]: did not

Structure (SMILES): N[C@@H](Cc1ccc(O)cc1)C(=O)O [L-Tyr, L-tyrosine, reference compound]
- effect on biofilm formation on defined medium [2]: did not

Structure (SMILES): CSCC[C@@H](N)C(=O)O [D-Met, D-methionine]
- effect on biofilm formation ([1]; 2 mM in MSgg medium): active in inhibiting biofilm formation
- minimum concentration (MIC) needed to prevent biofilm formation [1, 14]: around 1 mM
- biofilm-inhibition assay for B. subtilis [1]: significant inhibition of biofilm growth
- inhibition at 10 µM ([3]; Pseudomonas aeruginosa, PA14, 10 μM, 48 h/30° C., Polystyrene, read-out: % Inhibition relative to control (0%, <50%, 50-90%, >90%)): 0%
- inhibition at 100 µM ([3]; Pseudomonas aeruginosa, PA14, 100 μM, 48 h/30° C., Polystyrene, read-out: % Inhibition relative to control (0%, <50%, 50-90%, >90%)): 0%
- inhibition at 500 µM ([3]; Pseudomonas aeruginosa, PA14, 500 μM, 48 h/30° C., Polystyrene, read-out: % Inhibition relative to control (0%, <50%, 50-90%, >90%)): 0%

Structure (SMILES): N[C@H](Cc1c[nH]c2ccccc12)C(=O)O [D-Trp, D-tryptophan]
- effect on biofilm formation ([1]; 0.5 mM in MSgg medium): active in inhibiting biofilm formation
- minimum concentration (MIC) needed to prevent biofilm formation [1, 14]: around 1 mM
- biofilm-inhibition assay for B. subtilis [1]: significant inhibition of biofilm growth
- effect on biofilm formation on defined medium [2]: inhibited biofilm formation on defined medium

Structure (SMILES): N[C@H](Cc1ccc(O)cc1)C(=O)O [D-Tyr, D-tyrosine]
- effect on pellicle formation ([1]; 3 μM added to freshly inoculated culture in biofilm-inducing medium): significant inhibition of biofilm growth
- minimum concentration (MIC/MBIC) needed to prevent biofilm formation [1, 14]: about 100 nM
- biofilm-inhibition assay for B. subtilis [1]: significant inhibition of biofilm growth
- eps expression ([4]; 3 μM): substantially the same as the untreated sample
- incorporation into the cell wall [5]: incorporated into the cell wall
- cell association of TasA fibers [6]: largely undecorated with TasA fibers
- effect on biofilm formation on defined medium [2]: inhibited biofilm formation on defined medium
- cell association of TasA-mCherry (fluorescence microscopy of washed cells) [7]: only low levels of fluorescence
- total accumulation of TasA-mCherry (total fluorescence) ([7]; grown to stationary phase): little or no effect
- effect on biofilm formation on solid medium ([8]; 3 μM): inhibited biofilm formation
- effect on existing pellicles [9]: conspicuous breakdown of pellicles
- effect on biofilm formation [10]: highly effective in preventing biofilm formation
- cell growth ([11]; 3 μM): substantially the same as the untreated sample
- effect on biofilm formation ([3]; 10 μM, 48 hours at 30° C., M63): effective in preventing biofilm formation
- yqxM expression ([12]; 3 μM): substantially the same as the untreated sample
- number of cells attached to the bottom of the biofilm plate [13]: dramatic decrease

Structure (SMILES): CSCC[C@H](N)C(=O)O [L-methionine, reference compound]
- effect on biofilm formation ([1]; 5 mM in MSgg medium): Only the D-amino acids were active

Structure (SMILES): N[C@H](Cc1ccccc1)C(=O)O [D-Phe, D-phenylalanine]
- biofilm-inhibition assay for B. subtilis [1]: not effective

Structure (SMILES): C[C@@H](N)C(=O)O [D-alanine]
- biofilm-inhibition assay for B. subtilis [1]: not effective

Structure (SMILES): CC(C)C[C@@H](N)C(=O)O [D-Leu, D-leucine]
- effect on pellicle formation ([1]; 8.5 mM added to freshly inoculated culture in biofilm-inducing medium): significant inhibition of biofilm growth
- minimum concentration (MIC) needed to prevent biofilm formation [1, 14]: around 1 mM
- biofilm-inhibition assay for B. subtilis [1]: significant inhibition of biofilm growth
- eps expression ([4]; 8.5 mM): substantially the same as the untreated sample
- effect on biofilm formation on solid medium ([8]; 8.5 mM): inhibited biofilm formation
- cell growth ([11]; 8.5 mM): substantially the same as the untreated sample
- yqxM expression ([12]; 8.5 mM): substantially the same as the untreated sample
